Results on 13 compounds are retold here after patent US4767758A, “Pharmaceutical compositions containing thiophene compounds, and new thiophene compounds” (Consiglio Nazionale Delle Ricerche, priority 1984, dated 1988).

Series [1] in a line: Acute toxicity test by oral and intravenous route on male mice (Table 4). It is filed as in vivo. The note with it: mouse, in vivo, male mice. How it is done: (§1) The acute toxicity test was carried out by oral and intravenous route on male mice, weighing 19-21 g, which were deprived of meal for 16 hrs before treatment. Oral administration was performed by a gastric probe at doses of 500, 750, 1000 and 2000 mg/kg respectively, of the compounds under examination in aqueous solution of Tween (R). The intravenous administrations was performed in the caudal vein at doses of 100 and 200 mg/kg in 0.9% sodium chloride solution. The administered volumes were 1 ml/20 g by oral route and 0.5 ml/20 g by intravenous route.
(§2) After administration the mice were kept under control for 14 days.

The next series concerns male mice. The series is described as above. It is filed as in vivo. Conditions: 14 days. The method, then:
as §1, §2

Series [2] in a line: Reactivity with O2 radicals, pulsed electron beams (Table 3). Conditions: potassium formiate solution saturated with O2; 12 MeV pulsed electron beams. The source says: (§3) For testing the reactivity with oxygen radicals, solutions of the compounds under examination in very pure water were submitted to irradiation by an electron flow in accordance with the following procedure:
The O2 species was generated by irradiation of a […] solution of potassium formiate satured with O2 with 12 MeV pulsed electron beams.
The concentration of the O2 radical produced is depending from the irradiation dose (which is proportional to the length of the pulse) and was in any case in excess with respect to the concentration of the reacting substance.

The test system of series [3] is L 929 cells. The series can be described thus: Cytotoxicity on cell cultures (Table 2). How it is done: The biological and pharmacological activity of the compounds under examination was tested on cell cultures and under gamma radiations. Concentrations of 10^-6, 5×10^-6, 10^-5 and 10^-3 M of each compound were used. These aqueous solutions were added to cell cultures containing from 50 to 60 L 929 cells per mm^2; nutrient solution RPM-1-1640 containing 3% calf serum. Contact between the cells and the compound under examination was continued for six hours under nitrogen and under air. Parts of the solutions during the contact with the drug were irradiated in gamma cell with 1000, 2000 and 3000 rad always using a control sample without the drug.

Series [4] can be described thus: Reactivity with OH radicals, pulse irradiation (Table 3). Conditions: KCNS 10^-4 M; pulse 50 nsec, dose 18 Gy; λ=500 nm.
Source text: as §3
The irradiated solution for measurement of reactivity with OH radicals contained KCNS 10^-4 M and increasing concentrations of the compounds under examination. The concentrations were 10^-6 and 6×10^-6for the first five compounds of Table 1, 10^-5 and 10^-4, 10^-3 M for the other eight compounds.
The water used for the tests was neutral and made absolutely pure by deionization and four distillations also in the presence of oxidizing agents (KMnO4).
The irradiation conditions were: pulse 50 nsec, dose 18 Gy.
Absorption was performed at λ=500 nm.

In series [5] the test system is L 929 cells. Kind of series: Radiosensitization of cells in hypoxic condition under gamma radiation (Table 1). It is filed as cell-based. The method, then: The biological and pharmacological activity of the compounds under examination was tested on cell cultures and under gamma radiations. […] These aqueous solutions were added to cell cultures containing from 50 to 60 L 929 cells per mm^2; nutrient solution RPM-1-1640 containing 3% calf serum. Contact between the cells and the compound under examination was continued for six hours under nitrogen and under air. Parts of the solutions during the contact with the drug were irradiated in gamma cell with 1000, 2000 and 3000 rad always using a control sample without the drug.

[6] abbreviates: culture time 0 hr, 0.5 × 10^-5 M, control 40.
Where [7] appears, read: culture time 6 hr, 0.5 × 10^-5 M, control 62.
Where [8] appears, read: culture time 12 hr, 0.5 × 10^-5 M, control 80.
Setting [9] is: culture time 24 hr, 0.5 × 10^-5 M, control 166.
Where [10] appears, read: culture time 0 hr, 5 × 10^-5 M, control 40.
Where [11] appears, read: culture time 6 hr, 5 × 10^-5 M, control 62.
The mark [12] stands for this setting: culture time 12 hr, 5 × 10^-5 M, control 80.
Where [13] appears, read: culture time 24 hr, 5 × 10^-5 M, control 166.

As a reminder, the LD50 is the dose expected to kill half of the subjects tested. Read a low LD50 as a more toxic substance. For the compound `O=[N+]([O-])c1cc([N+](=O)[O-])c(I)s1` [Compound 1], the LD50 at 336 h in series [1] (intravenous) came out at 200 mg/kg; in series [1] (oral) it was 760 mg/kg. For the same compound, the “Death (dead/treated animals)” value is 0/5 with male mice (intravenous, 100 mg/kg); 0/5 with male mice (intravenous, 200 mg/kg); 0/5 in the series on male mice (oral, 500 mg/kg); 2/5 in the series on male mice (oral, 750 mg/kg); 5/5 in the series with male mice (oral, 1000 mg/kg). The “Reactivity with O2 radicals measured as a speed constant (KO2-·)” value (shortened to “Reactivity with O2 radicals measured”) in series [2] was found to be 3.5e+06 M⁻¹ s⁻¹. Moreover, the “Cytotoxicity Index (number of cells)” value with L 929 cells [3] (setting [6]) is 36 number of cells; with L 929 cells [3] (setting [7]), 35 number of cells; in the series on L 929 cells [3] (setting [8]), 42 number of cells; in the series with L 929 cells [3] (setting [9]) it was 71 number of cells. Also, the “Reactivity with OH radicals measured as a speed constant (KOH·)” value (from here on “Reactivity with OH radicals measured”) in series [4] was 2.1e+10 M⁻¹ s⁻¹.
For the compound `O=[N+]([O-])c1csc([N+](=O)[O-])c1` [Compound 2], the “Cytotoxicity Index (number of cells)” value in the series with L 929 cells [3] (setting [6]) is 46 number of cells; in the series on L 929 cells [3] (setting [7]), 40 number of cells; in the series with L 929 cells [3] (setting [8]), 68 number of cells; in the series on L 929 cells [3] (setting [9]), 80 number of cells.
In the same order, the values of `CS(=O)(=O)c1cc([N+](=O)[O-])c(I)s1` [Compound 3] are 37 number of cells, 30 number of cells, 35 number of cells and 50 number of cells.
For `O=[N+]([O-])c1ccc(Oc2sccc2[N+](=O)[O-])cc1` [Compound 4], in series [2], the “Reactivity with O2 radicals measured” value was 20000 M⁻¹ s⁻¹. Also, the “Cytotoxicity Index (number of cells)” value with L 929 cells [3] (setting [6]) was 56 number of cells; in the series with L 929 cells [3] (setting [7]), 34 number of cells; with L 929 cells [3] (setting [8]), 48 number of cells; with L 929 cells [3] (setting [9]), 70 number of cells. The “Reactivity with OH radicals measured” value in series [4] came to 1.3e+10 M⁻¹ s⁻¹.
`NC(=O)c1ccc([N+](=O)[O-])s1` [Compound 5]: the “Radiosensitization Index (R.S.I.)” value in the series with L 929 cells [5] (concentration 5 × 10^-5 M) is recorded as 1.40. In addition, in series [2], the “Reactivity with O2 radicals measured” value came to 30000 M⁻¹ s⁻¹. Moreover, the “Cytotoxicity Index (number of cells)” value in the series with L 929 cells [3] (setting [10]) is listed as 40 number of cells; in the series with L 929 cells [3] (setting [11]), 32 number of cells; with L 929 cells [3] (setting [12]), 50 number of cells; in the series on L 929 cells [3] (setting [13]) it was 80 number of cells. For the same compound, the “Reactivity with OH radicals measured” value in series [4] was determined as 2.3e+10 M⁻¹ s⁻¹.
As to `O=C(O)c1ccc([N+](=O)[O-])s1` [Compound 6], the “Radiosensitization Index (R.S.I.)” value in the series with L 929 cells [5] (concentration 1 × 10^-4 M) is listed as 1.82. Moreover, the “Reactivity with O2 radicals measured” value in series [2] is 100000 M⁻¹ s⁻¹. In addition, the “Cytotoxicity Index (number of cells)” value was 50 number of cells with L 929 cells [3] (setting [10]), 60 number of cells with L 929 cells [3] (setting [11]), 70 number of cells with L 929 cells [3] (setting [12]) and 110 number of cells in the series with L 929 cells [3] (setting [13]). Besides, the “Reactivity with OH radicals measured” value in series [4] was determined as 7.5e+09 M⁻¹ s⁻¹.
In the case of `O=C(O)CCNC(=O)c1ccc([N+](=O)[O-])s1` [Compound 7], the “Radiosensitization Index (R.S.I.)” value in the series with L 929 cells [5] (concentration 1 × 10^-4 M) stood at 1.38. For the same compound, the “Cytotoxicity Index (number of cells)” value was 56 number of cells in the series with L 929 cells [3] (setting [10]), 70 number of cells in the series with L 929 cells [3] (setting [11]), 75 number of cells in the series on L 929 cells [3] (setting [12]) and 164 number of cells in the series on L 929 cells [3] (setting [13]).
In the same order, the values of `O=C(O)CCCNC(=O)c1ccc([N+](=O)[O-])s1` [Compound 8] are 1.30, 47 number of cells, 50 number of cells, 80 number of cells and 152 number of cells.
`O=C(c1ccc([N+](=O)[O-])s1)N1CCOCC1` [Compound 9, 5-nitro-2-carboxythiophene-morpholinamide] gave a median lethal dose (LD50) at 336 h in series [1] (oral) of 2000 mg/kg. The “Death (dead/treated animals)” value is 0/5 in the series with male mice (intravenous, 100 mg/kg); 0/5 in the series with male mice (intravenous, 200 mg/kg); 0/5 with male mice (oral, 500 mg/kg); 0/5 with male mice (oral, 750 mg/kg); 1/5 in the series with male mice (oral, 1000 mg/kg); 3/5 with male mice (oral, 2000 mg/kg). Moreover, the “Radiosensitization Index (R.S.I.)” value with L 929 cells [5] (concentration 1 × 10^-4 M) worked out at 1.56. Besides, the “Reactivity with O2 radicals measured” value in series [2] was 230000 M⁻¹ s⁻¹. Besides, the “Cytotoxicity Index (number of cells)” value in the series with L 929 cells [3] (setting [10]) is given as 64 number of cells; in the series on L 929 cells [3] (setting [11]) it was 60 number of cells; in the series on L 929 cells [3] (setting [12]) it was 80 number of cells; in the series on L 929 cells [3] (setting [13]), 138 number of cells. In addition, the “Reactivity with OH radicals measured” value in series [4] amounted to 3.1e+10 M⁻¹ s⁻¹.
Consider `CN1CCN(C(=O)c2ccc([N+](=O)[O-])s2)CC1` [Compound 10, 5-nitro-2-carboxythiophene-N-methyl-piperazinamide], for which the “Radiosensitization Index (R.S.I.)” value in the series with L 929 cells [5] (concentration 1 × 10^-4 M) came to 1.58. Further, in series [2], the “Reactivity with O2 radicals measured” value is 33000 M⁻¹ s⁻¹. Also, the “Cytotoxicity Index (number of cells)” value with L 929 cells [3] (setting [10]) is on record as 50 number of cells; in the series with L 929 cells [3] (setting [11]), 52 number of cells; with L 929 cells [3] (setting [12]), 60 number of cells; in the series with L 929 cells [3] (setting [13]), 86 number of cells. In addition, the “Reactivity with OH radicals measured” value in series [4] came out at 1e+10 M⁻¹ s⁻¹.
Consider `CC(=O)Nc1ccc([N+](=O)[O-])s1` [Compound 11, 5-nitro-2-(N-acetyl)-thienylamine], for which, in the series with L 929 cells [5] (concentration 1 × 10^-4 M), the “Radiosensitization Index (R.S.I.)” value amounted to 1.65. Also, the “Cytotoxicity Index (number of cells)” value in the series on L 929 cells [3] (setting [10]) is 44 number of cells; in the series on L 929 cells [3] (setting [11]), 52 number of cells; with L 929 cells [3] (setting [12]) it was 60 number of cells; with L 929 cells [3] (setting [13]), 90 number of cells.
`O=C(O)C(C(=O)O)c1csc([N+](=O)[O-])c1` [Compound 12, 5-nitro-3-thiophenemalonic acid] displayed an LD50 at 336 h in series [1] (oral) of 1200 mg/kg. The “Death (dead/treated animals)” value in the series with male mice (intravenous, 100 mg/kg) was 0/5; in the series on male mice (intravenous, 200 mg/kg) it was 0/5; with male mice (oral, 500 mg/kg), 0/5; with male mice (oral, 750 mg/kg), 0/5; in the series with male mice (oral, 1000 mg/kg), 2/5; in the series on male mice (oral, 2000 mg/kg), 5/5. The “Radiosensitization Index (R.S.I.)” value in the series on L 929 cells [5] (concentration 1 × 10^-4 M) worked out at 1.88. Also, the “Reactivity with O2 radicals measured” value in series [2] came out at 10000 M⁻¹ s⁻¹. In addition, the “Cytotoxicity Index (number of cells)” value in the series on L 929 cells [3] (setting [10]) is listed as 50 number of cells; in the series with L 929 cells [3] (setting [11]), 60 number of cells; with L 929 cells [3] (setting [12]), 74 number of cells; in the series with L 929 cells [3] (setting [13]), 136 number of cells. In addition, the “Reactivity with OH radicals measured” value in series [4] came to 7.2e+09 M⁻¹ s⁻¹.
As to `COCC(O)Cn1ccnc1[N+](=O)[O-]` (centres unmarked) [Misonidazole, reference compound], the “Radiosensitization Index (R.S.I.)” value with L 929 cells [5] (concentration 1 × 10^-3 M) stood at 1.65.
